Measurements as given in patent US12054742B2, “Compositions and methods to derive mesodermal lineage cells and mixed tissue organoids from embryonic stem cells” (THE REGENTS OF THE UNIVERSITY OF MICHIGAN, priority 2018, dated 2024).

Key:
Assay type in all cases: cell-based, mouse
[1] = system: hWDR5Dox;mWdr5KO (mWdr5 KO) organoids; assay: Cell proliferation of differentiating mWdr5 KO organoids in retinal culture conditions (EB day 4); settings: Dox added at T0h, organoid day 4
Experimental: (§1) FIGS. 2A-2H. WDR5 regulates retinal progenitor cell fate transition in a dose- and time-dependent manner. (FIG. 2A) Tight control of exogenous HA-hWDR5 during early time window of ESC differentiation. hWDR5^Dox;mWdr5^KO (i.e., mWdr5 KO) ESCs were maintained in Dox (+) ESC media and Dox was removed upon ESC differentiation (day 0 or EB day 0 (EB0)). At different time points (0 h, 24 h, 36 h, 48 h, 60 h), cells were collected and subjected to probe HA-hWDR5 expression (a-HA). Tubulin: loading control. (FIG. 2B) Dose-dependent induction of exogenous hWDR5 and H3K4me during ESC differentiation. mWdr5 KO ESCs were maintained in Dox (+) ESC media and Dox was removed upon ESC differentiation (day 0). At 12 h post differentiation, different doses of Dox were added to mWdr5 KO EBs. At embryoid body (EB) day 4 (EB4), EBs were collected and extracted histones were subjected to western blotting. Total H3 was used as loading control. […] Cell proliferation was determined at EB day 4 (FIG. 2C) and Rx-GFP positive retinal progenitor cells were scored by flow cytometry at day 5 (FIG. 2D). […] Cell proliferation was recorded at EB day 4 (FIG. 2E) and Rx-GFP positive retinal progenitor cells at EB day 5 were scored by flow cytometry (FIG. 2F). […] (FIG. 2H) Wdr5 regulates RPC differentiation in a time-dependent manner as determined by Rx/Rax mRNA RT-qPCR. […]

[2] = system: hWDR5Dox;mWdr5KO (mWdr5 KO) organoids; assay: Rx-GFP (+) retinal lineage cell differentiation scored by flow cytometry (day 5); settings: Dox from T0h
Experimental: as §1

[3] = system: hWDR5Dox;mWdr5KO organoids; assay: RT-qPCR of cardiomyocyte markers cTnT and aMHC after late (T48h) induction of hWDR5; settings: Dox added at T48h
Experimental: FIGS. 4A-4K. Late induction of hWDR5 skews ESC differentiation from retinal neuroectoderm to cardiac mesoderm. (FIGS. 4A, 4B, 4C and 4D) RT-qPCR analysis of pluripotent marker (Oct4, FIG. 4A), neuroepithelial marker (N-Cadherin, FIG. 4B), retinal ectoderm marker (Rax/Rx, FIG. 4C) and cardiomyocyte mesoderm marker (cTnT, FIG. 4D) during time-course differentiation of WT, early induction (T12h), late induction (T36h or T48h) of exogenous hWDR5 in hWDR5^Dox;mWdr5^KO (i.e., mWdr5 KO) EBs. […] (FIG. 4H) Critical time points for exogenous hWDR5 linked to cardiomyocyte differentiation were determined by cTnT RT-qPCR. […] Induction of early mesoderm marker (T/Brachyury) and cTnT was determined by RT-qPCR.
Trizol reagent (ThermoFisher Scientific) and RNeasy mini kit (Qiagen) were utilized for RNA isolation from ESCs or EBs. […] Data were automatically analyzed using Bio-Rad CFX manager software using Δ/ΔCt method.
In various aspects of the disclosure, quantitative reverse transcription PCR (RT-qPCR) is used to analyze results obtained in the examples. […] Data is automatically analyzed using Bio-Rad CFX manager software using Δ/ΔCt method.
Third, immunohistochemistry (IHC) was used to assay for cardiomyocyte-specific proteins in T48h conditions. […] Neither cTnT nor Myh1e were detected in WT and T12h conditions. […]

C[C@H]1c2cccc(O)c2C(=O)C2=C(O)[C@]3(O)C(=O)C(C(N)=O)=C(O)[C@@H](N(C)C)[C@@H]3[C@@H](O)[C@@H]21 [Dox, doxycycline]
Dox concentration at which rescue of the proliferation defect reached a plateau [1]: 250 ng/mL | Dox dose at which proportion of Rx-GFP (+) RLCs reached a plateau [2]: 500 ng/mL | Dox dose at which proportion of Rx-GFP (+) RLCs was comparable to WT controls [2]: 250 ng/mL | Dox concentrations that induced cTnT and aMHC expression [3]: up to 125 ng/ml
